Data taken from patent US9745288B2, “Compounds and methods for treating cancer by inhibiting the urokinase receptor” (Indiana University Research and Technology Corporation, priority 2011, dated 2017).
pIC50: −log10 of the molar value.

Tests used:
[1] = molecular target: T1, hERG channel (Homo sapiens, UniProt Q12809); experiment: hERG fluorescence polarization Predictor Assay; format: binding; set-up: dose or concentration left out as unconfirmed
T1 construct: purchased Invitrogen (Carlsbad, Calif.)
T1 sequence (Q12809 whole entry): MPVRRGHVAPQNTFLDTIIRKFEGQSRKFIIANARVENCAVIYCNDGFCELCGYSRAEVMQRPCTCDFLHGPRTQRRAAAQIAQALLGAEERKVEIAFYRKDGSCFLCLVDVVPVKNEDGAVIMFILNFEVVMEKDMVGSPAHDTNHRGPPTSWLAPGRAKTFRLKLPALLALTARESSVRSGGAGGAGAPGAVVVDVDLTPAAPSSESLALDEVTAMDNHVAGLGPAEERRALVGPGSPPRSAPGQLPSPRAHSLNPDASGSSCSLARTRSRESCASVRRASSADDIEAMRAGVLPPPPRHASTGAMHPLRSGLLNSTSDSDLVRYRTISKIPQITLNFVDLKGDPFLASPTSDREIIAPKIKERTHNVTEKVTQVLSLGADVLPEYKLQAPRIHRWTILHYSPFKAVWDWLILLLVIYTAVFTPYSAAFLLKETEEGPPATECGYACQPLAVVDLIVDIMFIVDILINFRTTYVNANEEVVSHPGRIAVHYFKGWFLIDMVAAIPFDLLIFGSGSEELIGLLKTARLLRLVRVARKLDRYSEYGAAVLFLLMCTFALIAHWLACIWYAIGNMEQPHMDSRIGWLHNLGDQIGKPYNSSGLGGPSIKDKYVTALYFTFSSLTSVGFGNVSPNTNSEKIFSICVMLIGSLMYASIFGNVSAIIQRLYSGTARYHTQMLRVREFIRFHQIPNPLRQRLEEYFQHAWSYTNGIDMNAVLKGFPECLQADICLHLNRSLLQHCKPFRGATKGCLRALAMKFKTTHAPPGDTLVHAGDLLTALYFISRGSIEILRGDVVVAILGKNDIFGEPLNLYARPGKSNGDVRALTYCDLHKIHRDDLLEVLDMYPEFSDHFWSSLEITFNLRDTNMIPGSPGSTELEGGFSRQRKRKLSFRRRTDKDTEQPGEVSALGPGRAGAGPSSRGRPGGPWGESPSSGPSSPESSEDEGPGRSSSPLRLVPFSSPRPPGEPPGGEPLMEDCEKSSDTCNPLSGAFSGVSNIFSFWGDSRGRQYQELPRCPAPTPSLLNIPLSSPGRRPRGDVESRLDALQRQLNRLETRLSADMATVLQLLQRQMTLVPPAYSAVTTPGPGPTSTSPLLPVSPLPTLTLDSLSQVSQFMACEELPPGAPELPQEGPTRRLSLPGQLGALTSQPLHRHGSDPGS
Excerpt: Inhibition of the hERG channel is undesirable. Checking for hERG blockage is an integral step in the drug discovery cycle. The presently disclosed method is well-suited for high-throughput measurements based on fluorescence polarization (FP) as implemented in the Predictor Assay by Invitrogen (Carlsbad, Calif.). This assay is based on the principle that a fluorescent tracer upon binding to the hERG channel will induce an increase in the FP signal that will diminish when an inhibitor displaces the interaction between the tracer and the hERG channel.
FP measurements for IPR-1 and IPR-69 were performed using an EnVision (PerkinElmer) plate reader at an excitation of 540 nm and emission at 573 nm. […] At the highest concentration of 25 μM, which is near its biological activity in tumor cells, 60% blockage is detected.

[2] = system: phospho-p44/42 MAPK; experiment: Immunoblot of MAPK phosphorylation in MDA-MB-231 cells; format: cell-based, human; details: 100 μM, 30 minutes
Experimental: Immunoblots. MDA-MB-231 cells treated with 100 μM of compound(s)/1% DMSO for 30 min. Harvested cell lysates in RIPA buffer supplemented with protease inhibitors and phosphatase inhibitors. Under non-reducing condition equal amounts of protein were loaded per lane and separated in 4-12% NuPAGE gel (Invitrogen) at 200 V for 60 minutes, then transferred to Nitrocellulose membrane at 30 V for one hour using XCell II blot module. […] Secondary antibody: goat anti-rabbit IgG HRP 1:3000 in 5% non-fat milk-TBST at room for 1 hour. The protein bands were visualized using Immobilon Western Chemiluminescent HRP Substrate (WBKLS0100, Millipore, Billerica, Mass.). Fibronectin (Sigma, F2006) […] coated in 6-well plates overnight. MDA-MB-231serum-starved for 4 hours and then seeded in FN coated 6-well plates and treated with 5,10, 20 and 40 μM compound(s)/1% DMSO for 30 min, cells were lysated in RIPA buffer supplemented with protease inhibitors and phosphatase inhibitors. Then IB with phospho-p44/42 MAPK (Thr202/Tyr204), p44/42 MAPK; phospho-FAK (Tyr397), FAK; phospho-Src family (Tyr416), Src, respectively.
A concentration-dependent study was subsequently carried out for IPR-1 (FIG. 6B). […] The effect of the compound also was studied in two other signaling pathways including FAK and Src. FAK is constitutively associated with β-integrin subunits of integrin receptors.

[3] = system: MDA-MB-231 cells; experiment: Invasion assay (Boyden chamber, Matrigel); format: cell-based, human; details: Homo sapiens
Experimental: Invasion and Migration Assays. These assays were performed using BD BioCoat Matrigel Invasion Chamber (Cat. 354480, BD Biosciences, Bedford, Mass.). The undersurface of the inserts was coated with 30 μg/mL of fibronectin (Sigma, F2006) in PBS at 4° C. overnight. The inserts were washed with PBS once. Then, 0.5 mL of serum-free medium was separately added to the upper and lower chambers to equilibrate the Matrigel invasion chambers at 37° C., 5% CO2 for 2 hours. After starvated with serumfree DMEM or 4 hours, subconfluent MDA-MB-231 cells were trypsinized and resuspended in 0.1% FBS DMEM. 5×10^4 cells in 500 μL of 0.1% FBS DMEM containing various compounds or 1.0% DMSO (as control) were added to the upper chambers. 500 μL of 10% FBS DMEM containing the same concentration of the same compound or DMSO were added to the lower chambers. We incubated the invasion chambers for 3 hours at 37° C., 5% CO2. Non-invaded cells were removed from the upper chamber with a cotton swab. The invaded cells were fixed with 100% methanol and then stained with Hematoxylin Stain Harris Modified Method (Fisher, SH30-500D). The filters were washed with water 3 times. Filters were air dried and the invaded cells were counted in ten randomly selected microscopic fields (×200 magnification). The experiment was performed in triplicate per group and shown by mean±SE.
Whether the two active compounds affected invasion, adhesion and migration in cell culture in a concentration-dependent study was tested (FIGS. 2A, 2B). For invasion, the Transwell (or Boyden) chamber assay was used.^28 The assay uses a chamber with two compartments that are separated by a microporous membrane known as Matrigel consisting of components of the ECM such as collagen, laminin and fibronectin.^28
Invasive tumor cells degrade the Matrigel and migrate through the membrane to the lower compartment. […] FIGS. 2A and 2B show the effect of representative presently disclosed compounds on MDA-MB-231 metastasis. Percent inhibition of invasion, migration, and adhesion of MDA-MB-231 by compounds that bind to uPAR.

[4] = system: MDA-MB-231 cells; experiment: Adhesion assay on fibronectin-coated wells; format: cell-based, human; details: Homo sapiens; MDA-MB-231, fibronectin
Experimental: Adhesion Assay. Quantitative cell adhesion assays were carried out in nontissue culture treated 96-well microtiter plates (Evergreen Scientific, Los Angeles, Calif.) which were coated with 15 μg/mL fibronectin (Sigma) for 1 h at room temperature. Fibronectin coated and uncoated control wells were blocked for 1 h with 3% heat denatured bovine serum albumin (BSA) at 37° C. Cells were split one day prior to the experiment to achieve a subconfluent culture. […] The wells were washed and the number of adherent cells was quantified by crystal violet staining at 570 nm.^19,20 The results were shown by means±SE.

| SMILES | hERG channel blockage ([1]; 1, 10 and […] μM) | effect on MAPK phosphorylation [2] | pIC50 [3] | hERG blockage ([1]; […] μM) [%] | pIC50 [4] |
| --- | --- | --- | --- | --- | --- |
| CN(C)c1ccc(CNCCC(Cc2ccccc2)c2ccc3c(c2)OCO3)cc1 (racemic) [IPR-9, 4-(((3-(benzo[d][1,3]dioxol-5-yl)-4-phenylbutyl)amino)methyl)-N,Ndimethylaniline] | even greater hERG K^+ channel blockage than the well-known channel blocker E-4031 | significant impairment | 4.52 | – | – |
| Cc1cc(C)cc(NC(=O)c2cnn(-c3ccc(C(C)C)cc3)c2C2CCNCC2)c1 [IPR-69, N-(3,5-dimethylphenyl)-1-(4-isopropylphenyl)-5-(piperidin-4-yl)-1H-pyrazole-4-carboxamide] | – | abrogated phosphorylation, but the effects were weaker than IPR-9 | 4.52 | 60 | 4.35 |
